The values that follow come from US12459940B2, “Oxazole compound as multi-targeted inhibitor of IRAK4 and BTK” (SHANGHAI FOSUN PHARMACEUTICAL INDUSTRIAL DEVELOPMENT CO., …, priority 2019, dated 2025).

The subject of series [1] is human B-cell lymphoma OCI-LY10 cell subcutaneous xenograft tumor. As to the kind of experiment: Human B-cell lymphoma OCI-LY10 cell subcutaneous xenograft tumor mouse model. In kind it is in vivo. Here is the method:
The objective of the experiment was to study the efficacy of WX001 as the test drug on human B-cell lymphoma OCI-LY10 cell subcutaneous xenograft tumor in CB17 SCID mouse model.
OCI-LY10 human B-cell lymphoma cells were cultured in a 37° C., 5% CO2 incubator.
OCI-LY10 tumor cells were cultured and passaged, and 0.2 mL (1×10^7 cells) OCI-LY10 cells were subcutaneously inoculated on the right back of each […] (with Matrigel, volume ratio 1:1), and the group administration was started when the average tumor volume reached 167 mm^3. The health status and death of animals were monitored every day, and routine examinations included observing the effects of tumor growth and drug treatment on daily behaviors of animals, such as behavioral activities, food intake and water intake, weight change (weight was measured twice a week), tumor size (tumor volume was measured twice a week), appearance signs or other abnormal conditions.
The experimental index was to investigate whether the tumor growth was inhibited, delayed or cured. Including the measurement of tumor volume (TV), and the calculation of the compound's anti-tumor efficacy using TGI (%) or the relative tumor proliferation rate T/C (%).
TV=0.5a×b^2, a and b represented the long diameter and short diameter of the tumor, respectively.
T/C %=TRTV/CRTV×100% (TRTV: RTV in treatment group; CRTV: RTV in negative control group). Relative tumor volume (RTV) was calculated according to the results of tumor measurement, and the calculation formula was RTV=Vt/V0, wherein V0 was the average tumor volume measured at the time of group administration (i.e., d0), Vt was the average tumor volume at a certain measurement, and TRTV and CRTV were the data taken at the same day.
(In xenograft studies the graft and the host belong to different species.)

For a further series, the target named is T1, human BTK (Homo sapiens, UniProt Q06187).
T1 construct: purchased Reaction Biology Corp
As to the kind of experiment: In vitro BTK kinase activity, 33P isotope-labeled kinase activity assay (Reaction Biology Corp). The conditions noted are these: 33P-ATP, 2 hours at room temperature. Format: biochemical. The procedure:
The IC50 values were determined using ^33P isotope-labeled kinase activity assay (Reaction Biology Corp) to evaluate the inhibitory ability of the tested compounds on human BTK.
Buffer conditions: 20 mM Hepes (pH 7.5), 10 mM MgCl2, 1 mM EGTA, 0.02% Brij35, 0.02 mg/mL BSA, 0.1 mM Na3VO4, 2 mM DTT, 1% DMSO.
Test procedure: At room temperature, the tested compound was dissolved in DMSO to prepare a 10 mM solution for later use. The substrate was dissolved in a newly prepared buffer solution, and the tested BTK kinase was added thereto and mixed evenly. The compound dissolved in DMSO was added to the kinase reaction mixture through Echo 550 (Acoustic technology; Nanoliter range). After incubation for 20 minutes at room temperature, ^33P-ATP was added to initiate the reaction. The reaction was carried out at room temperature for 2 hours, and the radioactivity of the reaction liquid point was detected by filtration-binding method with P81 ion exchange filter paper. The kinase activity data were expressed by comparing the kinase activity of the group containing the tested compound with the kinase activity of the blank group (only containing DMSO), and the IC50 value was obtained by curve fitting by Prism4 software (GraphPad), the experimental results are shown in Table 10.

Series [2] has as its system TNF-α production in THP-1 cells. As to the kind of experiment: THP-1 cytological TNFa ELISA assay (LPS-stimulated). Format: cell-based. Particulars: Homo sapiens, TNF-α in culture supernatant, 150 ng/mL LPS, 18 hours. Here is the method: THP-1 human acute […] leukemia cells were purchased from ATCC (Cat #TIB-202) and cultured at 37° C. in 5% CO2 incubator. The composition of medium was RPMI1640 (Gibco, Cat #22400-105), and the supplementary compositions were 10% FBS (Gibco, Cat #10091148); 1% PenStrep (Gibco, Cat #15140); 0.05 mM 2-Mercaptoethanol (Sigma, Cat #M6250).
TNF-α Elisa kit was used to detect the content of TNF-α in cell culture supernatant samples. TNF-α was produced by stimulating THP-1 cells with 150 ng/mL LPS (Sigma, Cat #L6529).
THP-1 cells cultured normally at logarithmic growth stage were seeded in a 96-well plate (Corning #3599) at a certain concentration (1*10^5/100 μL) and then put into a cell incubator for incubation. After two hours, 16.7 μL of different concentrations of the compound to be tested (8*final concentration) were added and incubated in an incubator. After one hour, 16.7 μL of 1200 ng/mL LPS was added and incubated in an incubator. After 18 hours, the culture supernatant samples were collected by centrifugation, and the content of TNF-α could be detected by TNF-α Elisa kit. Finally, OD signals (OD450-OD570) were read on envision board reader.
The OD450-OD570 signal value was converted into a percentage inhibition rate. Inhibition rate %=(ZPE−sample)/(ZPE−HPE)*100.
“HPE” refers to the OD450-OD570 signal value of the control well without LPS stimulated cells, and “ZPE” refers to the OD450-OD570 signal value of the control well with LPS stimulated cells. The IC50 value of the compound was calculated by XLFit in the excel add-in. Y=Bottom+(Top−Bottom)/(1+(IC50/X)^HillSlope). Equation: […]

Setting [3] is: 50 mpk, 18 days after the start of administration, p<0.001.

T1 sequence (Q06187 whole entry): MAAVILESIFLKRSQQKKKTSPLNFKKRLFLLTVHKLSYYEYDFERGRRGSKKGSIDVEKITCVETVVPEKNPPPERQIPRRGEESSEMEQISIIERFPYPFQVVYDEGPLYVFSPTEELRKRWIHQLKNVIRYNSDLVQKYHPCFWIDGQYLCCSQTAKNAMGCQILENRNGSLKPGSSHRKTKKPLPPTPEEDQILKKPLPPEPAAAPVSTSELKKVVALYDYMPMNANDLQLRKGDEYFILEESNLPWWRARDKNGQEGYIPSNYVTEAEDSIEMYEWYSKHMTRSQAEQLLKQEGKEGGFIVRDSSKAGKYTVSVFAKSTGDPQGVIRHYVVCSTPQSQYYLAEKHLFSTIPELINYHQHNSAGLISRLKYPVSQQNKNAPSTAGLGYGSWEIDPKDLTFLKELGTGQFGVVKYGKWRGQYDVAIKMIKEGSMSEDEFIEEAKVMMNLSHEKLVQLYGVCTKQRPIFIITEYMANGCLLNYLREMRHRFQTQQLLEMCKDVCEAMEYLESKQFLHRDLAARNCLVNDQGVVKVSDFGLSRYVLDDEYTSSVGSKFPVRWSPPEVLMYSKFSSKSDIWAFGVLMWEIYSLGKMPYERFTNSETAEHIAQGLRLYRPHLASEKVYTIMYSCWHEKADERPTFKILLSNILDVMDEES

What is called IC50 is the concentration needed to halve the response being measured. Low readings indicate greater potency, high ones weaker potency. As to `Cc1cc(-c2nc(C(=O)Nc3cn4cc(CCC(C)(C)O)nc4cc3N3CCCCC3)co2)ccn1` [WX001], the “anti-tumor effect compared with the solvent control group” value in series [1] (50 mpk, 18 days) is “significant anti-tumor effect”. The molecule further displayed a T/C value in series [1] (setting [3]) of 22%. Besides, the TGI value in series [1] (setting [3]) stood at 109%. In series [1] (OCI-LY10 xenograft mice, 18 days of administration), the “drug tolerance (body weight, abnormality)” value is given as “well tolerated”. Moreover, the figures for the IC50 (against human BTK; in series [2]) were 6.7 nM and 124 nM, respectively.
